From US20250120399A1, “METHODS AND COMPOSITIONS FOR ALTERING METABOLITES IN VITIS SPP. AND PREVENTING PESTS AND PATHOGENS” (Impello Biosciences, Inc., priority 2022, published 2025)

Assays:
Format in all cases: in vivo
[1] = test system: powdery mildew (Erysiphe necator); experiment: Powdery mildew on leaf and fruit under the microscope, 2021 field trial (Example 3); conditions: cabernet sauvignon; approx. 5 mM MDJ at 50 gal/acre, four applications
Method: MDJ was applied to fields of grape to investigate the efficacy of MDJ in preventing bunch rot on (Botrytis cinerea) and powdery mildew (Erysiphe necator) on grapes. […] (1 liter) per 50 gallons of water (approximately a 5 mM solution of MDJ). The composition was then applied (at a rate of 50 gallons per acre) to three acres (1245 vines/acre) of a cabernet sauvignon variety grown in Napa Valley, CA. There was a total of four applications between June and September using a ground spray rig. Several leaf and fruit samples were collected to access the presence of powdery mildew under the microscope and compared to leaf and fruit of plants treated with the grower standard.

Botrytis cinerea = experiment: Laccase analysis for prevalence of Botrytis, 2021 field trial (Example 3); conditions: cabernet sauvignon; approx. 5 mM MDJ at 50 gal/acre, four applications
Method: MDJ was applied to fields of grape to investigate the efficacy of MDJ in preventing bunch rot on (Botrytis cinerea) and powdery mildew (Erysiphe necator) on grapes. […] (1 liter) per 50 gallons of water (approximately a 5 mM solution of MDJ). The composition was then applied (at a rate of 50 gallons per acre) to three acres (1245 vines/acre) of a cabernet sauvignon variety grown in Napa Valley, CA. There was a total of four applications between June and September using a ground spray rig. To investigate the prevalence of Botrytis, the enzyme laccase was analyzed. Laccase can negatively impact wine by causing premature browning of bottled white wine and color degradation in red wine. The MDJ treated group had 2 units/ml, whereas the control (grower standard) had 5 units/ml. This level in the control group means that Botrytis problems can be expected during the wine making process, whereas in the MDJ treated group, the value of 2 units/ml means there will be no issues with Botrytis during the wine making process.

Aspergillus carbonarius [2] = experiment: Sour rot incidence and severity on black seedless grapes, 2022 field trial (Example 5); conditions: for Sour rot clusters of High severity (PESSEV) / Sour rot clusters of Low severity (PESSEV) / Sour rot clusters of Medium severity (PESSEV): ABCDE; for Sour rot clusters of High severity (PESSEV): Aug. 10, 2022, high = >51%; for Sour rot clusters of Low severity (PESSEV): Aug. 10, 2022, low = <40% of cluster area; for Sour rot clusters of Medium severity (PESSEV): Aug. 10, 2022, medium = 41%-50%; for Sour rot infected clusters (PESINC): applications ABCDE, rated Aug. 10, 2022
Method: (§1) Field trials were conducted in California 2022 (a dry year) to investigate the efficacy of MDJ in preventing Sour Rot caused by Aspergillus carbonarius (also known as summer bunch rot, abbreviated ASPECA in Table 7). Black seedless grapes (Vitis labrusca) were used in this trial. Four vines were used per plot. The plots were arranged in a randomized complete block design with six replicates (plots) per treatment. The plots were sprayed five times (ABCDE) at a rate of 500 gal/AC.
Treatments consisted of MDJ at 32 oz and 48 oz/A. A treatment of Regalia® at 1.5 qt/100 gal and Stargus® at 2 qt/100 gal was included for comparative purposes. Application D occurred at 5-10% veraison. Application E occurred at 40% veraison.
(§2) Botrytis and powdery mildew were absent for the trial. An evaluation of sour rot was completed before the harvest. The area of an infected cluster was estimated into a percentage and categorized into three levels of severity: low (<40%), medium (41%-50%), and high (>51%). The majority of individual infected clusters had low severity.

Aspergillus carbonarius [3] = experiment: Sour rot incidence and severity on Kyoho grapes, 2022 field trial (Example 6); conditions: for sour rot Incidence per plot (PESINC, clusters) / sour rot severity High (PESSEV, clusters) / sour rot severity Low (PESSEV, clusters) / sour rot severity Medium (PESSEV, clusters): applications ABCD; for sour rot severity High (PESSEV, clusters): high (>51%); for sour rot severity Low (PESSEV, clusters): low (<40% of cluster area infected); for sour rot severity Medium (PESSEV, clusters): medium (41%-50%)
Method: as §1, with “10). Kyoho” for “7). Black seedless”, “(Vitis vinifera×Vitis” for “(Vitis”, “Three” for “Four”, “treatment (24 plots total).” for “treatment.”, “four” for “five”, “(ABCD)” for “(ABCDE)”
Treatments consisted of MDJ at 32 oz and 48 oz/A. A treatment of Regalia® at 1.5 qt/100 gal and Stargus® at 2 qt/100 gal was included for comparative purposes.
as §2

SMILES: CCCCCC1C(=O)CCC1CC(=O)OC (centres unmarked) [MDJ, methyl dihydrojasmonate]
- Control of powdery mildew vs grower standard [1]: the same, or better, control of powdery mildew as the grower standard
- Laccase (Botrytis cinerea): 2 units/ml
- Sour rot clusters of High severity (PESSEV) (Aspergillus carbonarius [2]; 32 oz/a): 1.3— NUMBER
- Sour rot clusters of Low severity (PESSEV) (Aspergillus carbonarius [2]; 32 oz/a): 7.2— NUMBER
- Sour rot clusters of Medium severity (PESSEV) (Aspergillus carbonarius [2]; 32 oz/a): 5.3— NUMBER
- Sour rot infected clusters (PESINC) (Aspergillus carbonarius [2]; 32 oz/a): 13.8— NUMBER
- Sour rot clusters of High severity (PESSEV) (Aspergillus carbonarius [2]; 48 oz/a): 0.8— NUMBER
- Sour rot clusters of Low severity (PESSEV) (Aspergillus carbonarius [2]; 48 oz/a): 6.2— NUMBER
- Sour rot clusters of Medium severity (PESSEV) (Aspergillus carbonarius [2]; 48 oz/a): 5.3— NUMBER
- Sour rot infected clusters (PESINC) (Aspergillus carbonarius [2]; 48 oz/a): 12.3— NUMBER
- Control of sour rot compared to the rest of the treatments (Aspergillus carbonarius [2]; higher rate of MDJ Elicitor (48 oz/A)): most effective at controlling sour rot
- sour rot Incidence per plot (PESINC, clusters) (Aspergillus carbonarius [3]; Aug. 17, 2022, 32 oz/a): 0.8— number
- sour rot Incidence per plot (PESINC, clusters) (Aspergillus carbonarius [3]; Aug. 17, 2022, 48 oz/a): 1.2— number
- sour rot severity High (PESSEV, clusters) (Aspergillus carbonarius [3]; Aug. 17, 2022, 32 oz/a): 0.0— number
- sour rot severity High (PESSEV, clusters) (Aspergillus carbonarius [3]; Aug. 17, 2022, 48 oz/a): 0.0— number
- sour rot severity Low (PESSEV, clusters) (Aspergillus carbonarius [3]; Aug. 17, 2022, 32 oz/a): 0.8— number
- sour rot severity Low (PESSEV, clusters) (Aspergillus carbonarius [3]; Aug. 17, 2022, 48 oz/a): 0.8— number
- Control of sour rot compared to the rest of the treatments (Aspergillus carbonarius [3]; lower rate of MDJ Elicitor (32 oz/A)): highest efficacy in controlling sour rot
- sour rot severity Medium (PESSEV, clusters) (Aspergillus carbonarius [3]; Aug. 17, 2022, 32 oz/a): 0.0— number
- sour rot severity Medium (PESSEV, clusters) (Aspergillus carbonarius [3]; Aug. 17, 2022, 48 oz/a): 0.3— number
